Among the data in patent US6677368B2, “4-aryl substituted indolinones” (Sugen, Inc., priority 2000, dated 2004) are IC50 values, retold here.

Holding throughout (format): biochemical
One assay has as its target EGFR (Homo sapiens, UniProt P00533). Nature of the assay: EGFR kinase inhibition.
In the next assay the target is T1, MET (Homo sapiens, UniProt P08581).
T1 construct: Purified GST fusion protein containing the Met kinase domain, SUGEN, Inc
Description: MET transphosphorylation assay. The settings on record: GST fusion protein containing the Met kinase domain, poly(glu-tyr) substrate. The protocol: MET TRANSPHOSPHORYLATION ASSAY
This assay is used to measure phosphotyrosine levels on a poly(glutamic acid:tyrosine, 4:1) substrate as a means for identifying agonists/antagonists of met transphosphorylation of the substrate.
1. Corning 96-well ELISA plates, Corning Catalog #25805-96.
2. Poly(glu-tyr), 4:1, Sigma, Cat. No; P 0275.
5. Blocking Buffer: Dissolve 25 g Bovine Serum Albumin, Sigma Cat. No A-7888, in 500 ml PBS, filter through a […] filter.
6. Purified GST fusion protein containing the Met kinase domain, SUGEN, Inc.
8. 10% aqueous (MilliQue H2O) DMSO.
9. 10 mM aqueous (dH2O) Adenosine-5′-triphosphate, Sigma Cat. No. A-5394.
10. 2×Kinase Dilution Buffer: for 100 ml, mix 10 mL 1M HEPES at pH 7.5 with 0.4 mL 5% BSA/PBS, 0.2 mL 0.1 M sodium orthovanadate and 1 mL 5M sodium chloride in 88.4 mL dH2O.
11. 4×ATP Reaction Mixture: for 10 mL, mix 0.4 mL 1 M manganese chloride and 0.02 mL 0.1 M ATP in 9.56 mL dH2O.
12. 4×Negative Controls Mixture: for 10 mL, mix 0.4 mL 1 M manganese chloride in 9.6 mL dH2O.
13. NUNC 96-well V bottom polypropylene plates, Applied Scientific Catalog #S-72092
15. Antibody Dilution Buffer: for 100 mL, mix 10 mL 5% BSA/PBS, 0.5 mL 5% Carnation® Instant Milk in PBS and 0.1 mL 0.1 M sodium orthovanadate in 88.4 mL TBST.
16. Rabbit polyclonal antophosphotyrosine antibody, SUGEN, Inc.
17. Goat anti-rabbit horseradish peroxidase conjugated antibody, Biosource, Inc.
18. ABTS Solution: for 1 L, mix 19.21 g citric acid, 35.49 g Na2HPO4 and 500 mg ABTS with sufficient dH2O to make 1 L.
19. ABTS/H2O2: mix 15 mL ABST solution with 2μL H2O2 five minutes before use.
1. Coat ELISA plates with 2 μg Poly(Glu-Tyr) in 100 μL PBS, hold overnight at 4° C.
2. Block plate with 150 μL of 5% BSA/PBS for 60 min.
3. Wash plate twice with PBS then once with 50 mM Hepes buffer pH 7.4.
4. Add 50 μl of the diluted kinase to all wells. (Purified kinase is diluted with Kinase Dilution Buffer. Final concentration should be 10 ng/well.)
5. Add 25 μL of the test compound (in 4% DMSO) or DMSO alone (4% in dH2O) for controls to plate.
6. Incubate the kinase/compound mixture for 15 minutes.
7. Add 25 μL of 40 mM MnCl2 to the negative control wells.
8. Add 25 μL ATP/MnCl2 mixture to the all other wells (except the negative controls). Incubate for 5 min.
9. Add 25 μL 500 mM EDTA to stop reaction.
10. Wash plate 3× with TBST.
11. Add 100 μL rabbit polyclonal anti-Ptyr diluted 1:10,000 in Antibody Dilution Buffer to each well. Incubate, with shaking, at room temperature for one hour.
12. Wash plate 3× with TBST.
13. Dilute Biosource HRP conjugated anti-rabbit antibody 1:6,000 in Antibody Dilution buffer. Add 100 μL per well and incubate at room temperature, with shaking, for one hour.
14. Wash plate 1× with PBS.
15. Add 100 μl of ABTS/H2O2 solution to each well.
16. If necessary, stop the development reaction with the addition of 100 μl of 0.2M HCl per well.
17. Read plate on Dynatech MR7000 ELISA reader with the test filter at 410 nM and the reference filter at 630 nM.

In the next assay the target is FGFR3 (Homo sapiens, UniProt P22607). Nature of the assay: FGFR3 kinase inhibition.
A further assay addresses T2, SRC (Homo sapiens, UniProt P12931).
T2 construct: purchased UBI 14-117
Description: Src transphosphorylation assay. The settings on record: recombinant human Src, poly(Glu-Tyr) substrate. Here is the method: Src Transphosphorylation Assay
This assay is used to screen for inhibitors of the tyrosine kinase Src.
1. Coating buffer: PBS containing sodium azide (0.2 mg/ml).
3. Wash buffer: PBS containing 0.05% v/v Tween 20 (PBS-TWEEN)
5. ATP (40 [M)+MgCl2 (80 mM) in distilled water.
6. MgCl2 (80 mM) in distilled water (for no ATP blanks).
7. Test compounds, 10 mM in DMSO.
8. Assay Buffer: 100 mM HEPES, pH 7.4, containing 2 mM DTT, 0.2 mM sodium orthovanadate and 0.2 mgs/ml BSA.
9. Partially purified recombinant human Src (UBI (14-117)
10. Anti-phosphotyrosine (SUGEN rabbit polyclonal anti-PY).
11. HRP-linked goat anti-rabbit Ig (Biosource International #6430)
12. HRP substrate ABTS or Pierce Peroxidase substrate.
13. Corning ELISA plates.
1. Coat plates with 100 μl of 20 μg/ml poly(Glu-Tyr) (Sigma Cat. No.P0275) containing 0.01% sodium azide. Hold overnight at 4° C.
2. Block with 1% BSA at 100 μl/well for one hour at room temperature.
3. Plate test compounds (10 mM in DMSO) at 2 ul/well on a Costar plate ready for dilution with dH2O and plating to reaction plates.
4. Dilute Src kinase 1:10,000 in Reaction Buffer, for 5 plates prepare 25 ml as follows: 2.5 mls 1M HEPES pH7.4 (stored sterile at 4° C.), 21.85 ml distilled water, 0.1 ml 5% BSA, 0.5 ml 10 mM sodium orthovanadate (stored sterile at 4° C.), 50 μl 1.0M DTT (stored frozen at […]), and 2.5 μl Src Kinase (stored frozen at −80° C.).
5. Add 48 μl of distilled water to the 2 ∥l of each compound in the dilution plate then add 25 μl/well of this to the reaction plate.
6. Add 50 μl of […] to each reaction buffer well and then 25 μl ATP-MgCl2/well (MgCl2 only to no ATP blanks). Incubate at room temperature for 15 minutes on plate shaker. Stop reaction by adding 25 μl of 0.5M EDTA to each well.
7. Wash 4× with PBS-TWEEN.
8. […] Incubate with continuous shaking at room temperature for one hour.
9. Wash plates 4× with PBS-TWEEN.
10. Add 100 μl HPP-linked Ig (1:5,000) in PBS-TWEEN containing 0.5% BSA, 0.025% Non-fat milk powder, 100 μM sodium orthovanadate. Incubate with shaking at room temperature for one hour.
11. Wash plates 4× with PBS-TWEEN and then once with PBS.
12. Develop plate using ABTS or other peroxidase substrate.

Molecules are shown by their SMILES.

Usually IC50 stands for the concentration needed to halve the response being measured.

T2 sequence (P12931 whole entry): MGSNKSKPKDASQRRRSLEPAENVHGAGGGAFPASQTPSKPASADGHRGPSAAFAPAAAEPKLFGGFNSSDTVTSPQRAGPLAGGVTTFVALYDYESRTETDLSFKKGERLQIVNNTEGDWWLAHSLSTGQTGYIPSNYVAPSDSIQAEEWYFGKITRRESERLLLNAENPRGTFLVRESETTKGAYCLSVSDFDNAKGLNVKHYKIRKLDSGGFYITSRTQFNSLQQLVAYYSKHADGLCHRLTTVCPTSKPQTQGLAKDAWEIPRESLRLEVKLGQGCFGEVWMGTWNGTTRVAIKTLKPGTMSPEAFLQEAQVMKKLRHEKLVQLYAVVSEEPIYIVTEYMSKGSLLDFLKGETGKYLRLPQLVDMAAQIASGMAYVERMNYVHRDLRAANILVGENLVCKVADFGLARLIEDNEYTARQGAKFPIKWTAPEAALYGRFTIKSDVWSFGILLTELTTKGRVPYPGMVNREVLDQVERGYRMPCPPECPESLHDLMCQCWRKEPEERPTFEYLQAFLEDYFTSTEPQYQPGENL
EGFR, sequence (P00533 25-1210, species assumed): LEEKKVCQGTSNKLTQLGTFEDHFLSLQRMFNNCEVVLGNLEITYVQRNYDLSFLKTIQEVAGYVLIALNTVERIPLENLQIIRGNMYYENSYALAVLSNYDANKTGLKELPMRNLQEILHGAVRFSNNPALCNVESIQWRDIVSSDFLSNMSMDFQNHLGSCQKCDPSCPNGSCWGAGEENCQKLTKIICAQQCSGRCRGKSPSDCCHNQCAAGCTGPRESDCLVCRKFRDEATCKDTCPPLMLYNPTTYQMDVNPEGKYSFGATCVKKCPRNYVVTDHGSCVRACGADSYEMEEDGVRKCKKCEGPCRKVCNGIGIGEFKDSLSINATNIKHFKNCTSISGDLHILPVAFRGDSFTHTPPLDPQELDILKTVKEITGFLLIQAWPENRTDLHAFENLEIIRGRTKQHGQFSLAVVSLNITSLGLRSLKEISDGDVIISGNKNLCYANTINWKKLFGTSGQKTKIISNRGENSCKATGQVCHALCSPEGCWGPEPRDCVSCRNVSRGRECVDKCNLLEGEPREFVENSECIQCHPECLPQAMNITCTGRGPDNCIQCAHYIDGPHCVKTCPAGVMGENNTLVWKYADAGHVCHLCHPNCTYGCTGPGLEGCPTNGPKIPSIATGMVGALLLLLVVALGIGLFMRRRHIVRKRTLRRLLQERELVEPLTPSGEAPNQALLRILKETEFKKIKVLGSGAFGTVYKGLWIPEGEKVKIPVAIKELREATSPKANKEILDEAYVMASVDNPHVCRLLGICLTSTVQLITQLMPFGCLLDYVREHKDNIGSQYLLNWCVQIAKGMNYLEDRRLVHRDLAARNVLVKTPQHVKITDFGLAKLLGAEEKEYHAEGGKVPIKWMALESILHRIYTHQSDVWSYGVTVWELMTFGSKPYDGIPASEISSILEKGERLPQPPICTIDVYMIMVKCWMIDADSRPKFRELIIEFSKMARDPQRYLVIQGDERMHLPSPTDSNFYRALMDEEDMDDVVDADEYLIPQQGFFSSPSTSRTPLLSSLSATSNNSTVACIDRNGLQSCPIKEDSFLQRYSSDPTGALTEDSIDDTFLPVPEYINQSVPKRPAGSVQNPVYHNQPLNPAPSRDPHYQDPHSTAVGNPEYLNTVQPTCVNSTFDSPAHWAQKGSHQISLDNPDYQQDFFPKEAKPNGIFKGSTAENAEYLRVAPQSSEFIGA
FGFR3, sequence (P22607 23-806, species assumed): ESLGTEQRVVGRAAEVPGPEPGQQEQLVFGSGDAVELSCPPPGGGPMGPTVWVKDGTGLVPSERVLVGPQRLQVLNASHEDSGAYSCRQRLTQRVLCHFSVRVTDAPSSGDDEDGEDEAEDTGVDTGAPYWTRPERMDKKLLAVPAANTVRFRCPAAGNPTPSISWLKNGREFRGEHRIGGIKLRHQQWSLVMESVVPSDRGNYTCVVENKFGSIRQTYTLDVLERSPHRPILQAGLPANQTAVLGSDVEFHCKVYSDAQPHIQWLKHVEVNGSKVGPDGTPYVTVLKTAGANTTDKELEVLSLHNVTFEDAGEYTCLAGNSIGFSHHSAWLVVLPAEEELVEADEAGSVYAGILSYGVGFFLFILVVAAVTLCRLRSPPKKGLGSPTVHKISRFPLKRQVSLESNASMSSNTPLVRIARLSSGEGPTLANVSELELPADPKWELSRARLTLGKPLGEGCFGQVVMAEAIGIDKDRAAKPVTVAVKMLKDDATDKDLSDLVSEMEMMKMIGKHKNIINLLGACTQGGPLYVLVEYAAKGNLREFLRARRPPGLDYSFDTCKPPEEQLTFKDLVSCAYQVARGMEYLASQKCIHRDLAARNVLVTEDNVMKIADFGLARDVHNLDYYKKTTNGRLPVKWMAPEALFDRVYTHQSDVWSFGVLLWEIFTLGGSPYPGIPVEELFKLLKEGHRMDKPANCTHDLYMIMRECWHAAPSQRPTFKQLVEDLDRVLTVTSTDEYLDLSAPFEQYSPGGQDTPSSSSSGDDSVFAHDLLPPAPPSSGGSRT
T1 sequence (P08581 1078-1345 limits assumed): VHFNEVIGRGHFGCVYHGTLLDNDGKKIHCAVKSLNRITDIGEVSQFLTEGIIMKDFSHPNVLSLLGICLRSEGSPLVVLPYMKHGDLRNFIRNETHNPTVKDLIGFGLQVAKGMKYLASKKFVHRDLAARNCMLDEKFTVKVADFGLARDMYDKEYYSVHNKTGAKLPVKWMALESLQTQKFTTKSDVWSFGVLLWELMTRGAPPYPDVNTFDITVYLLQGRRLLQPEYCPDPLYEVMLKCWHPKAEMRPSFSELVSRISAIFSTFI

Consider `Cc1[nH]c(/C=C2\C(=O)Nc3cccc(-c4ccc(Cl)cc4)c32)c(C)c1C(=O)NCCN1CCCC1` [Example 22, 5-[4-(4-Chloro-phenyl)-2-oxo-1,2-dihydro-indol-3-ylidenemethyl]-2,4-dimethyl-1H-pyrrole-3-carboxylic Acid (2-Pyrrolidin-1-yl-ethyl)-amide], for which the IC50 is 15.9 µM against EGFR, 0.14 µM at MET, 0.074 µM on FGFR3 and 1.58 µM at SRC.

For the compound `Cc1[nH]c(/C=C2\C(=O)Nc3cccc(-c4ccc(Br)cc4)c32)c(C)c1C(=O)NCCN(C(C)C)C(C)C` [Example 60, 5-[4-(4-Bromo-phenyl)-2-oxo-1,2-dihydro-indol-3-ylidenemethyl]-2,4-dimethyl-1H-pyrrole-3-carboxylic Acid (2-Diisopropylamino-ethyl)-amide], the IC50 at EGFR was found to be 7.01 µM; against MET, 0.25 µM; at FGFR3 it was 0.55 µM; on SRC it was 2.01 µM.

As for `CCN(CC)CCNC(=O)c1c(C)[nH]c(/C=C2\C(=O)Nc3cccc(-c4cccc(F)c4)c32)c1C` [Example 13, 5-[4-(3-Fluoro-phenyl)-2-oxo-1,2-dihydro-indol-3-ylidenemethyl]-2,4-dimethyl-1H-pyrrole-3-carboxylic Acid (2-Diethylamino-ethyl)-amide], the IC50 against EGFR turned out to be 13.1 µM; at MET, 0.1 µM; at FGFR3, 0.021 µM; at SRC, 1.05 µM.

As to `CCN(CC)CCNC(=O)c1c(C)[nH]c(/C=C2\C(=O)Nc3cccc(-c4cccc(Cl)c4)c32)c1C` [Example 29, 5-[4-(3-Chloro-phenyl)-2-oxo-1,2-dihydro-indol-3-ylidenemethyl]-2,4-dimethyl-1H-pyrrole-3-carboxylic Acid (2-Diethylamino-ethyl)-amide], the IC50 against EGFR is 12.9 µM; against MET it was 0.065 µM; against FGFR3 it was 0.32 µM; on SRC it was 1.25 µM.

Turning to `CCOC(=O)c1c(C)[nH]c(/C=C2\C(=O)Nc3cccc(-c4cccc(F)c4)c32)c1CCCN1CCN(C)CC1` [Example 18, 5-[4-(3-Fluoro-phenyl)-2-oxo-1,2-dihydro-indol-3-ylidenemethyl]-2-methyl-4-[3-(4-methyl-piperazin-1-yl)-propyl]-1H-pyrrole-3-carboxylic Acid Ethyl Ester], the 50% inhibitory concentration (IC50) came to 9.33 µM on EGFR, 0.27 µM on MET, 0.35 µM against FGFR3 and 7.81 µM on SRC.

Consider `COc1ccc(-c2cccc3c2/C(=C/c2[nH]c(C)c(C(=O)NCCN4CCCC4)c2C)C(=O)N3)cc1` [Example 38, 5-[4-(4-Methoxy-phenyl)-2-oxo-1,2-dihydro-indol-3-ylidenemethyl]-2,4-dimethyl-1H-pyrrole-3-carboxylic Acid (2-Pyrrolidin-1-yl-ethyl)-amide], for which the IC50 at EGFR came out at 16.4 µM; against MET it was 0.11 µM; against FGFR3, 0.046 µM; at SRC, 1.25 µM.
